Laboratory results: patent US9476099B2 (TRUSTEES OF DARTMOUTH COLLEGE, priority 2012, dated 2016)

Tested on: NT2/D1-R1 control and DNMT3B knockdown cells
Test: Genome-wide expression analysis with PAM clusters, control and DNMT3B knockdown cells (Tables 8-14)
Conditions: sh-Ctrl + aza, NT2/D1-R1, decitabine 10 nM 3 days

SMILES: Nc1ncn([C@H]2C[C@H](O)[C@@H](CO)O2)c(=O)n1 [aza]
- ACSS2 (NM_0010765) gene expression, Mean: 354.703
- ADCK1 (NM_020421) gene expression, Mean: 203.584
- ADCY1 (NM_021116) gene expression, Mean: 106.028
- AGAP1 (NM_014914) gene expression, Mean: 188.156
- AK056312 gene expression, Mean: 293.846
- ANKRD9 (NM_152326) gene expression, Mean: 614.423
- APEH (NM_001640) gene expression, Mean: 720.135
- APP (NM_201414) gene expression, Mean: 326.901
- C1orf115 (NM_024709) gene expression, Mean: 213.203
- C2orf34 (NM_024766) gene expression, Mean: 205.5
- C7orf47 (NM_145030) gene expression, Mean: 466.635
- C16orf35 (NM_0010394) gene expression, Mean: 630.186
- CA4 (NM_000717) gene expression, Mean: 1449.98
- CACNA2D2 (NM_006030) gene expression, Mean: 304.761
- CD24 (NM_013230) gene expression, Mean: 1797.88
- CD248 (NM_020404) gene expression, Mean: 178.853
- CDC42EP5 (NM_145057) gene expression, Mean: 219.473
- CDH3 (NM_001793) gene expression, Mean: 651.295
- CEBPB (NM_005194) gene expression, Mean: 1388.19
- CHST13 (NM_152889) gene expression, Mean: 151.937
- CLASP1 (NM_015282) gene expression, Mean: 301.334
- CLIP2 (NM_032421) gene expression, Mean: 175.136
- COMMD1 (NM_152516) gene expression, Mean: 235.362
- COMMD7 (NM_0010993) gene expression, Mean: 915.427
- CRMP1 (NM_0010148) gene expression, Mean: 328.665
- CTNNBIP1 (NM_020248) gene expression, Mean: 144.946
- CXCL16 (NM_022059) gene expression, Mean: 279.669
- CYP2F1 (NM_000774) gene expression, Mean: 126.222
- CYP2S1 (NM_030622) gene expression, Mean: 604.679
- DBC1 (NM_014618) gene expression, Mean: 197.271
- DDIT4 (NM_019058) gene expression, Mean: 522.11
- DGKQ (NM_001347) gene expression, Mean: 247.199
- DLL3 (NM_016941) gene expression, Mean: 120.925
- DPYSL3 (NM_001387) gene expression, Mean: 602.964
- DYM (NM_017653) gene expression, Mean: 217.362
- DYSF (NM_003494) gene expression, Mean: 188.291
- EEF2K (NM_013302) gene expression, Mean: 243.652
- EPHA1 (NM_005232) gene expression, Mean: 497.427
- EVI5L (NM_145245) gene expression, Mean: 247.813
- EVL (NM_016337) gene expression, Mean: 537.424
- EXTL3 (NM_001440) gene expression, Mean: 695.163
- F11R (NM_016946) gene expression, Mean: 182.523
- FAF1 (NM_007051) gene expression, Mean: 209.978
- FAM125A (NM_138401) gene expression, Mean: 564.523
- FAM127A (NM_0010781) gene expression, Mean: 867.222
- FCGBP (NM_003890) gene expression, Mean: 247.577
- FDFT1 (NM_004462) gene expression, Mean: 417.59
- FIGNL2 (NM_0010136) gene expression, Mean: 231.29
- FLNB (NM_001457) gene expression, Mean: 679.266
- FOXN3 (NM_005197) gene expression, Mean: 274.017
- GAL (NM_015973) gene expression, Mean: 1375.17
- GAS7 (NM_201433) gene expression, Mean: 225.598
- GLG1 (NM_012201) gene expression, Mean: 958.607
- GRAMD1A (NM_020895) gene expression, Mean: 767.701
- GTF3C1 (NM_001520) gene expression, Mean: 387.976
- HCFC1R1 (NM_0010020) gene expression, Mean: 427.673
- HESX1 (NM_003865) gene expression, Mean: 204.885
- HINT2 (NM_032593) gene expression, Mean: 537.794
- HIST3H2A (NM_033445) gene expression, Mean: 314.077
- HIST4H4 (NM_003541) gene expression, Mean: 218.72
- HK1 (NM_033500) gene expression, Mean: 3617.1
- IDH1 (NM_005896) gene expression, Mean: 668.525
- IL21R (NM_181078) gene expression, Mean: 154.278
- JPH3 (NM_020655) gene expression, Mean: 167.797
- KIF1A (NM_004321) gene expression, Mean: 160.071
- KIF1B (NM_015074) gene expression, Mean: 252.94
- LDB2 (NM_001290) gene expression, Mean: 202.228
- LDOC1 (NM_012317) gene expression, Mean: 502.418
- LHFPL4 (NM_198560) gene expression, Mean: 215.926
- LONP1 (NM_004793) gene expression, Mean: 779.763
- LPCAT3 (NM_005768) gene expression, Mean: 477.318
- LRBA (NM_006726) gene expression, Mean: 170.16
- LRRC33 (NM_198565) gene expression, Mean: 145.858
- MAPK3 (NM_0010400) gene expression, Mean: 277.581
- MAPKAP1 (NM_0010066) gene expression, Mean: 182.648
- MED30 (NM_080651) gene expression, Mean: 647.26
- MID1IP1 (NM_021242) gene expression, Mean: 649.056
- MKRN1 (NM_013446) gene expression, Mean: 2856.3
- MSRB2 (NM_012228) gene expression, Mean: 934.409
- MYO5C (NM_018728) gene expression, Mean: 151.991
- NANOG (NM_024865) gene expression, Mean: 706.99
- NCOR2 (NM_006312) gene expression, Mean: 493.089
- NDUFS4 (NM_002495) gene expression, Mean: 337.053
- NFE2L3 (NM_004289) gene expression, Mean: 222.942
- NGFRAP1 (NM_206917) gene expression, Mean: 1121.05
- NKX3-2 (NM_001189) gene expression, Mean: 409.938
- NM_014745 gene expression, Mean: 379.916
- NPAS1 (NM_002517) gene expression, Mean: 201.893
- NPTX2 (NM_002523) gene expression, Mean: 367.499
- ODZ3 (NM_0010804) gene expression, Mean: 189.247
- P4HB (NM_000918) gene expression, Mean: 1383.99
- PACSIN1 (NM_020804) gene expression, Mean: 216.839
- PCDH19 (NM_020766) gene expression, Mean: 151.727
- PCK2 (NM_0010180) gene expression, Mean: 116.02
- PDZD4 (NM_032512) gene expression, Mean: 182.348
- PEMT (NM_148172) gene expression, Mean: 595.006
- PEX14 (NM_004565) gene expression, Mean: 250.351
- PGM1 (NM_002633) gene expression, Mean: 1814.18
- PHC1 (NM_004426) gene expression, Mean: 951.052
- PIM2 (NM_006875) gene expression, Mean: 985.879
- PITPNC1 (NM_181671) gene expression, Mean: 180.093
- PNKP (NM_007254) gene expression, Mean: 424.886
- PPAP2A (NM_176895) gene expression, Mean: 348.062
- PPP1R1B (NM_181505) gene expression, Mean: 238.675
- PQLC3 (NM_152391) gene expression, Mean: 198.571
- PRSS8 (NM_002773) gene expression, Mean: 991.013
- PSAT1 (NM_021154) gene expression, Mean: 1824.54
- PTOV1 (NM_017432) gene expression, Mean: 720.62
- PTPLA (NM_014241) gene expression, Mean: 227.16
- RAB3IP (NM_175624) gene expression, Mean: 601.056
- RALY (NM_007367) gene expression, Mean: 833.663
- RASIP1 (NM_017805) gene expression, Mean: 185.874
- RASL11B (NM_023940) gene expression, Mean: 432.564
- RCN2 (NM_002902) gene expression, Mean: 501.026
- REEP6 (NM_138393) gene expression, Mean: 405.813
- RNF130 (NM_018434) gene expression, Mean: 174.702
- ROD1 (NM_005156) gene expression, Mean: 637.491
- RPS6KA2 (NM_0010069) gene expression, Mean: 141.693
- SAT1 (NM_002970) gene expression, Mean: 1895.82
- SCARB1 (NM_005505) gene expression, Mean: 433.694
- SEMA4B (NM_198925) gene expression, Mean: 288.428
- SEMA4D (NM_006378) gene expression, Mean: 315.221
- SEMA6B (NM_032108) gene expression, Mean: 218.592
- SH2B3 (NM_005475) gene expression, Mean: 424.579
- SLC3A2 (NM_0010132) gene expression, Mean: 898.448
- SLC8A2 (NM_015063) gene expression, Mean: 166.295
- SLC16A10 (NM_018593) gene expression, Mean: 159.709
- SLC22A23 (NM_021945) gene expression, Mean: 233.534
- SND1 (NM_014390) gene expression, Mean: 423.122
- SOX2 (NM_003106) gene expression, Mean: 271.23
- SPRY1 (NM_005841) gene expression, Mean: 248.973
- SPSB2 (NM_032641) gene expression, Mean: 474.363
- SRPX (NM_006307) gene expression, Mean: 222.901
- SURF6 (NM_006753) gene expression, Mean: 1293.98
- TBCD (NM_005993) gene expression, Mean: 256.961
- TCEA2 (NM_198723) gene expression, Mean: 483.559
- TCF7L1 (NM_031283) gene expression, Mean: 144.548
- TIMP4 (NM_003256) gene expression, Mean: 389.521
- TMC6 (NM_007267) gene expression, Mean: 346.392
- TMEM145 (NM_173633) gene expression, Mean: 166.627
- TPST2 (NM_0010085) gene expression, Mean: 370.953
- TRAPPC9 (NM_031466) gene expression, Mean: 104.733
- TSPAN9 (NM_006675) gene expression, Mean: 1313.95
- TUBB4 (NM_006087) gene expression, Mean: 253.587
- UBE2E2 (NM_152653) gene expression, Mean: 347.293
- UNC84B (NM_015374) gene expression, Mean: 465.92
- VCX2 (NM_016378) gene expression, Mean: 415.874
- VCX3A (NM_016379) gene expression, Mean: 1237.23
- VCX3B (NM_0010018) gene expression, Mean: 1368.4
- VSNL1 (NM_003385) gene expression, Mean: 249.848
- WDR8 (NM_017818) gene expression, Mean: 619.054
- XBP1 (NM_0010795) gene expression, Mean: 505.041
- XM_373896 gene expression, Mean: 276.846
- XM_926633 gene expression, Mean: 1782.67
- XM_932919 gene expression, Mean: 283.159
- XM_933796 gene expression, Mean: 270.602
- XM_943677 gene expression, Mean: 245.788
- ZBTB46 (NM_025224) gene expression, Mean: 207.588
- ZSWIM4 (NM_023072) gene expression, Mean: 393.591
- HIST1H2BK (NM_080593) gene expression, Mean (first HIST1H2BK entry (r906)): 1316.1
- TRPC4AP (NM_015638) gene expression, Mean (first TRPC4AP entry (r880)): 633.52
- HIST1H2BK (NM_080593) gene expression, Mean (second HIST1H2BK entry (r952)): 332.966
- TRPC4AP (NM_015638) gene expression, Mean (second TRPC4AP entry (r892)): 1094.19
